The source of these data is patent US7250492B2, “Compositions and methods for inhibition of cancer invasion and angiogenesis” (The Research Foundation at State University of New York, priority 2000, dated 2007).

In test [1] the target is T1, seprase (Homo sapiens, UniProt Q12884).
T1 sequence (Q12884 1-760): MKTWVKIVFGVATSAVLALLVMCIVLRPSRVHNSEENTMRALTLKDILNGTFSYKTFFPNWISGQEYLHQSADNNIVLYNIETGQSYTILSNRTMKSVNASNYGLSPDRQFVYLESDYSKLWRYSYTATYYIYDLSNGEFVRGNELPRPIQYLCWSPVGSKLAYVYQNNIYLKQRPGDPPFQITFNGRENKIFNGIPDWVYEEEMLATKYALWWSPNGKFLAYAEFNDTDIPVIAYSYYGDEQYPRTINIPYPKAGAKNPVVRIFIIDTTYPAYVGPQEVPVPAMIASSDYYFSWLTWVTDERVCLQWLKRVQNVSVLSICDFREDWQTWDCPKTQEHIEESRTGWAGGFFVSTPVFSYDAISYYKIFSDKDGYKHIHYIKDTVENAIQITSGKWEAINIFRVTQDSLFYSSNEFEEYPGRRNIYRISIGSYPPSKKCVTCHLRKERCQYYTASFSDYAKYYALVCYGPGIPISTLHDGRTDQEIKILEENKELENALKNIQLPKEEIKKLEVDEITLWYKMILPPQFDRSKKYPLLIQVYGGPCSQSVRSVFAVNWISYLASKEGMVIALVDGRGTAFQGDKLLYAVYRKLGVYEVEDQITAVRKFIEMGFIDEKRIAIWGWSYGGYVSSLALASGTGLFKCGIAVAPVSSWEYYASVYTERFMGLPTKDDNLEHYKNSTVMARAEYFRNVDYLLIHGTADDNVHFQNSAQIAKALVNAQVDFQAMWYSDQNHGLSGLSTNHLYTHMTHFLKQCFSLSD
The conditions noted are these: cited from earlier work.

In test [2] the target is DPPIV (Homo sapiens, UniProt P27487). The conditions noted are these: reversible DPPIV inhibitor; cited from earlier work.
Chain of DPPIV (P27487 whole entry, species assumed): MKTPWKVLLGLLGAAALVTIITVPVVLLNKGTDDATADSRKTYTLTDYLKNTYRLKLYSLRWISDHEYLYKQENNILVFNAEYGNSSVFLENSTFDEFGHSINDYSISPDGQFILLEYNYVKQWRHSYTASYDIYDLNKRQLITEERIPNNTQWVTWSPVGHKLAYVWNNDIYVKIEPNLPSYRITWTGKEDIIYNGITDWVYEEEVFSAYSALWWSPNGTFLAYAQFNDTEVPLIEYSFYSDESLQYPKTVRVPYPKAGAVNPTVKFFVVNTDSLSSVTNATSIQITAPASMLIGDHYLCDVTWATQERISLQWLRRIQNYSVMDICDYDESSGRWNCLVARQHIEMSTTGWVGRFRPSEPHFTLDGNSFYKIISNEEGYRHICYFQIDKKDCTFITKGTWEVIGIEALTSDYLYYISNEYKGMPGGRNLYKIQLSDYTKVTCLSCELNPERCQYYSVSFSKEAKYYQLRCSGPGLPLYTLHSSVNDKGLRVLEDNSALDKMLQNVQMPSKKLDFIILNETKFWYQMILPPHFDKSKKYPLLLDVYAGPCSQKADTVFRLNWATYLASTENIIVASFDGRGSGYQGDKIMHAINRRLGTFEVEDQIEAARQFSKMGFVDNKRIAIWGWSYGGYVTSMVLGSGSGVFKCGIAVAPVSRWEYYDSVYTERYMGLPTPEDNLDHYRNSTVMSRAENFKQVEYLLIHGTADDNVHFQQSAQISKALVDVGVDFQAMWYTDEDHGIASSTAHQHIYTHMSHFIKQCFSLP
Test [3] has as its target T2, seprase-DPPIV complex (Homo sapiens, UniProt P27487+Q12884).
T2 construct: The seprase-DPPIV complex was isolated from WI38 RIPA extracts using mAbs D28; endogenous in cells; host or cells: WI38 human fibroblasts (RIPA extract, immuno-isolated on mAb D28 or E3 beads)
Description: collagen-degrading activity: peptide release from biotinylated type I collagen gel. Format: biochemical. The conditions noted are these: 37° C., 8 h; mAb 5 μg/ml, AEBSF 20 μM, CG1847 50 nM. The protocol: FIG. 9. Collagen-degrading activity of the seprase-DPPIV complex. Collagen-degrading activities of the protease complex and purified DPPIV were determined by the release of peptide fragments from biotinylated type I collagen gel in the presence of these enzymes. The seprase-DPPIV complex was isolated from WI38 RIPA extracts using mAbs D28 (lane marked Ip Seprase) and E3 (lane marked Ip DPPIV) beads, seprase from LOX WGA fraction using mAb D28 (lane marked Ip Seprase*), MMP-2 from media conditioned by MMP-2 COS cell transfectants (lane marked MMP-2), and proteins associated with β3 integrin were from WI38 RIPA extracts using HB242 (lane marked Ip β3 integrin). All enzymes, including the protease complex, purified seprase, MMP-2, and proteins associated with β1 or β3 integrin were applied at the concentration of 50 ng/ml. […]
Collagen-degrading activity of isolated DPPIV or seprase-DPPIV complex was determined by the release of peptide fragments from biotinylated type I collagen gel by immuno-isolated proteases or the protease complex. […]

T2 sequence (P27487 whole entry, one chain of several): as the sequence (P27487 whole entry, species assumed) above

As for `N=C(N)c1ccc(CS(=O)(=O)F)cc1` [APSF], the seprase gelatinase activity entry in test [1] was “completely blocked”.

On to `CCN1C(=O)C=CC1=O` [NEM], for which the “inhibition of seprase activity” value in test [1] was “inhibited”.

For the molecule `NC(CCC(=O)NOC(=O)c1ccccc1)C(=O)N1CCCC1` (stereo not shown) [H-Glu(NHO-Bz)-Pyrr], the Ki in test [2] was 500 nM.

On to `NCCc1ccc(S(=O)(=O)F)cc1` [AEBSF], for which the “degradation of collagen by the seprase-DPPIV complex” value in test [3] was “blocked”. Also, the seprase gelatinase activity entry in test [1] is recorded as “completely blocked”.

`O=S(=O)(F)Cc1ccccc1` [PMSF]: in test [1], the “inhibition of seprase activity” value was “inhibits” and the seprase gelatinase activity result was “completely blocked”.
